Data as given in patent US5238953A, “N-imidazolyl derivatives of substituted tetrahydrocarbazole and cyclohept (B) indole” (Farmitalia Carlo Erba S.R.L., priority 1991, dated 1993).
Read-outs that look alike come from different tables or passages of the source.

Columns and labels:
TxB2 synthesis = TxB2 synthesis inhibition in vitro in whole blood of normal rats; type: cell-based, normal Sprague Dawley rats; conditions: Rattus norvegicus, read-out: In vitro effect on TxB2 synthesis in normal rats, IC50 (whole blood)
Procedure: (§1) The effects of a representative group of compounds of the invention were evaluated, in comparison with known compounds, on TxB2 synthesis inhibition in vitro in whole blood of normal rats, and on TxA2 antagonism in a binding assay in washed human platelets.
TxB2 Synthesis Inhibition
Blood was withdrawn from the abdominal aorta of normal Sprague Dawley rats (Charles River Italy) under light ether anaesthesia. The blood was immediately divided in portions of 0.5 ml and distributed in glass tubes each containing a concentration of the test compound, or of the reference compounds.
Samples were then allowed to clot for 1 hour at 37° C., centrifuged at 3000 rpm for 10 min, and serum collected and stored at -20° C. until assayed.

TXA2 receptor = biological target: T1, TXA2 receptor (Homo sapiens, UniProt P21731); test: Displacement of [^3 H]-SQ 29.548 binding to washed human platelets (TxA2 antagonism); conditions: for affinity for the receptor: in words, compared with BM 13505 and BM 13177, binding test (washed human platelets); for IC50: washed human platelets, [^3 H]-SQ 29,548 5 nM, 30 min at 25° C., read-out: ^3 H SQ 29548 binding displacement (washed human platelet) IC50
T1 construct: endogenous in cells; host or cells: washed human platelets from blood of healthy volunteers
T1 sequence (P21731 1-343): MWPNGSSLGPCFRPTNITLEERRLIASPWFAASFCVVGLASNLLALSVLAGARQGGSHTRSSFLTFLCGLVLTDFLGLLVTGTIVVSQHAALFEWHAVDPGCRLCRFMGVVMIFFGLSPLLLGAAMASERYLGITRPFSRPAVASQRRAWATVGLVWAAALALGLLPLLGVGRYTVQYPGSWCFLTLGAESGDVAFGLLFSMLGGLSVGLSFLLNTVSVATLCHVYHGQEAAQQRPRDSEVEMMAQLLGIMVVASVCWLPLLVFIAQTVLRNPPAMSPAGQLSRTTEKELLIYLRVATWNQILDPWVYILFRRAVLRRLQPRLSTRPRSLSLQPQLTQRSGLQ
Procedure: as §1
Displacement of [^3 H]-SQ 29.548 binding to washed human platelets
Blood from healthy volunteers of both sexes who had not taken any medication for at least 10 days was collected into one-tenth volume of acid citrate dextrose containing indomethacin (28 μM). Platelet rich plasma (PRP), obtained by centrifugation of the blood at 200×g for 20 min, was washed twice (1000×g for 10 min). The platelets are then resuspended in Tyrode-Hepes buffer (pH 7.4) to a final concentration of […] and incubated for 0-60 min at 25° with [^3 H]-SQ 29,548 (5 nM). For displacement experiments various concentrations (10^-9 -10^-4 M) of competing ligands were added and incubated for 30 min at 25° C. […] After the incubation, 4 ml of ice-cold TRIS-HCl buffer (10 mM, pH 7.4) was added to each tube and the reaction mixture was immediately filtered by suction through a Whatman GF/C glass filter disc which was washed 2 times with ice-cold TRIS-HCl (4 ml) and counted for radioactivity by a Packard β-counter.
The binding data were analysed by computerized non-linear curve fitting using the Ligand program and expressed as IC50.

[1] = whole blood of normal rats, clotted 1 hour at 37° C.

SMILES | IC50 (TxB2 synthesis; 1 h) | IC50 (TxB2 synthesis; [1]) | affinity for the receptor (TXA2 receptor) | IC50 (TXA2 receptor)
CC(=O)Oc1ccccc1C(=O)O [ASA, acetylsalicilic acid] | 31000 nM |  |  | 
O=C(O)c1ccc(OCCn2ccnc2)cc1 [Dazoxiben] |  | 1200 nM |  | 
O=C(O)CC1CCCc2c1n(Cc1ccc(-n3ccnc3)cc1)c1ccc(F)cc21 (stereo not shown) [FCE 26643, 6-Fluoro-9-[[4-(1H-imidazol-1-yl)phenyl]methyl]-1,2,3,4-tetrahydrocarbazol-1-yl-acetic acid] |  |  | affinity for the receptor greater than those of compounds BM 13505 and BM 13177 | 6.6 nM
O=C(O)CC1CCCc2c(n(Cc3ccc(-n4ccnc4)cc3)c3ccc(F)cc23)C1 (stereo not shown) [FCE 27041, 2-Fluoro-5-[[4-(1H-imidazol-1-yl)phenyl]methyl]-5,6,7,8,9,10-hexahydrocyclohept[b]indole-7-acetic acid] |  | 198 nM | affinity for the receptor greater than those of compounds BM 13505 and BM 13177 | 6 nM
